Source: ChEMBL document CHEMBL5303304, “EUbOPEN Chemogenomics Library - IncuCyte” (2023)

Experiments:
Type in all cases: toxicity, cell-based
HEK-293T = test: Incucyte cell viability with HEK293T; conditions: human, 10 µM, compound concentration 10 uM
Fibroblast = test: Incucyte cell viability with human fibroblast; conditions: 10 µM, compound concentration 10 uM
U2OS = test: Incucyte cell viability with U2OS; conditions: human, 10 µM, compound concentration 10 uM
Note: unitless GR value; below 1 slowed growth and below 0 cell loss.

| SMILES | Growth Rate (HEK-293T; 0 h, replicate number 1) | Growth Rate (HEK-293T; 6 h, replicate number 1) | Growth Rate (HEK-293T; 6 h, replicate number 2) | Growth Rate (HEK-293T; 12 h, replicate number 1) | Growth Rate (HEK-293T; 12 h, replicate number 2) | Growth Rate (HEK-293T; 18 h, replicate number 1) | Growth Rate (HEK-293T; 18 h, replicate number 2) | Growth Rate (HEK-293T; 24 h, replicate number 1) | Growth Rate (HEK-293T; 24 h, replicate number 2) | Growth Rate (Fibroblast; 0 h, replicate number 1) | Growth Rate (Fibroblast; 0 h, replicate number 2) | Growth Rate (Fibroblast; 6 h, replicate number 2) | Growth Rate (U2OS; 6 h, replicate number 1) | Growth Rate (U2OS; 12 h, replicate number 1) | Growth Rate (U2OS; 12 h, replicate number 2) | Growth Rate (U2OS; 18 h, replicate number 1) | Growth Rate (U2OS; 18 h, replicate number 2) | Growth Rate (U2OS; 24 h, replicate number 1) | Growth Rate (U2OS; 24 h, replicate number 2) | Growth Rate (Fibroblast; 6 h, replicate number 1) | other results |
| --- | --- | --- | --- | --- | --- | --- | --- | --- | --- | --- | --- | --- | --- | --- | --- | --- | --- | --- | --- | --- | --- |
| CCc1ccc(-c2ncn(CC3(F)CCN(C)CC3)c2-c2ccnc3[nH]ccc23)nc1 | -0.12 | 0 | 0.08 | 0.43 | 0.35 | 0.76 | 0.72 | 0.9 | 0.69 | 0.78 | 0.42 | 0.83 | 0.66 | 0.71 | 0.69 | 0.85 | 0.83 | 0.87 | 0.75 | – | Growth Rate (HEK-293T; 0 h, replicate number 2): 0.98; Growth Rate (Fibroblast; 18 h, replicate number 1): 0.78; Growth Rate (Fibroblast; 18 h, replicate number 2): 0.97; Growth Rate (Fibroblast; 24 h, replicate number 1): 0.93; Growth Rate (U2OS; 0 h, replicate number 1): 0.47 |
| C[C@@H]1CC(=O)N(C2CC2)N=C1c1ccc(NC(=O)N2Cc3ccncc3C2)cc1 | 0.95 | 0.41 | 0.39 | 0.41 | 0.67 | 0.46 | 0.53 | 0.28 | 0.32 | -0.95 | -0.77 | -0.07 | 0.59 | 0.94 | – | – | – | 0.95 | – | 0.8 | Growth Rate (HEK-293T; 0 h, replicate number 2): -0.07; Growth Rate (Fibroblast; 12 h, replicate number 2): 0.57; Growth Rate (Fibroblast; 18 h, replicate number 2): 0.85; Growth Rate (Fibroblast; 24 h, replicate number 2): 0.81 |
| CC(C)C(=O)N[C@@H]1CCN(C(=O)Nc2nc3c(s2)-c2nc(-c4ccccc4Cl)ncc2CC3)C1 | – | 0.21 | -0.05 | 0.16 | -0.08 | 0.29 | 0.03 | 0.37 | 0.15 | -0.95 | – | – | – | 0.94 | 0.9 | 0.91 | 0.77 | 0.88 | 0.69 | – | – |
| Cc1nn(-c2nc3ccc(Cl)c(Cl)c3[nH]2)c(O)c1C1OC(=O)c2ccccc21 (centres undefined) | 0.09 | – | – | – | – | – | – | – | – | -1 | -0.86 | – | 0.82 | – | – | – | – | – | – | 0.95 | Growth Rate (Fibroblast; 24 h, replicate number 1): 0.83; Growth Rate (U2OS; 0 h, replicate number 1): 0.81 |
| Cl.O=C(O)CCCN1CCC[C@H]1COc1ccc(Oc2ccc(Cl)cc2)cc1 | – | 0.64 | -0.09 | 0.9 | 0.12 | – | 0.37 | 0.98 | 0.53 | -1 | – | – | 0.84 | – | – | – | – | 0.94 | – | 0.91 | Growth Rate (Fibroblast; 12 h, replicate number 2): 0.93; Growth Rate (Fibroblast; 18 h, replicate number 1): 0.87 |
| CC(=O)c1ccc2c(c1)/C(=C(/Nc1cccc(C#N)c1)c1ccc3c(c1)OCCO3)C(=O)N2 | -0.8 | 0.26 | 0.65 | -0.22 | 0.12 | -0.15 | -0.03 | -0.16 | -0.02 | 0.26 | -0.78 | – | – | – | 0.72 | 0.73 | 0.5 | 0.52 | 0.43 | – | Growth Rate (Fibroblast; 24 h, replicate number 2): 0.84 |
| CCC(=O)N[C@H]1CC[C@@H](C(=O)N(C)c2ccc(-c3nc4ccccc4o3)cc2)C1 [BI 99179] | – | 0.1 | 0.11 | 0.1 | 0.26 | 0.31 | 0.51 | 0.51 | 0.69 | – | -0.49 | 0.58 | 0.68 | 0.89 | 0.65 | 0.98 | 0.87 | 0.86 | 0.96 | 0.53 | Growth Rate (Fibroblast; 12 h, replicate number 1): 0.5; Growth Rate (Fibroblast; 18 h, replicate number 1): 0.66; Growth Rate (Fibroblast; 18 h, replicate number 2): 0.98; Growth Rate (Fibroblast; 24 h, replicate number 1): 0.79; Growth Rate (U2OS; 0 h, replicate number 1): 0.2 |
